Patent US10716869B2, “Radiolabeled macrocyclic EGFR inhibitor” (Oncodesign SA, priority 2016, dated 2020)
≈ marks a conversion by molar mass, not a printed value. Where “and” joins values, the source holds several entries; their conditions need not be identical. Equal entries are not always repeated. Where two headings read alike, the source gives them in different places. Each block holds one compound with its values, some of them ahead of it.

Assays:
[1] = tested on: human lung tumors (wild type EGFR, L858R mutated or exon 19 deleted EGFR); assay: autoradiography on human frozen tumor sections; conditions: ATP at 10 mM
Description: Three types of human lung tumors were included: tumors harboring wild type EGFR and tumors carrying L858R mutated or exon 19 deleted EGFR genes.

[2] = biodistribution by ex vivo γ-counting in Sprague Dawley rats
Experimental: To evaluate the biodistribution of the pure S (II) and R (III) enantiomers compared to compound (I), dynamic PET scan imaging and ex vivo gamma counting were performed on Sprague Dawley rats. Animals were injected with the radiotracer solution diluted in NaCl 0.9% to prepare a solution of activity 4-6 MBq (gamma-counting experiments) or 11-13 MBq (PET imaging experiments) in a volume of 300-400 or 600-800 μL, respectively. Radioactivity content in all biological samples was determined with scintillation γ-counter (Cobra 4180, Perkin-Elmer Inc.).
At the light of the biodistribution data of compound (I), the biodistribution of the R (III)- and S (II)-enantiomers was assessed by γ-counting in the organs in which the accumulation of compound (I) was prominent (that is: blood, heart, kidneys, liver, stomach, small intestine and colon). Two timepoints were selected: 5 and 30 minutes post-injection. […] The higher uptakes of R enantiomer (III) and S enantiomer (II) in these organs were expected to be observed at early timepoints after injection, giving the highest signals in the γ-counter and therefore making the comparison of biodistribution data more relevant. Besides, as PET images were acquired with compound (I), PET imaging was included in the evaluation of the biodistribution of R enantiomer and S enantiomer. This gave the opportunity to had one additional timepoint at 4 hours post-injection for collection of major organs and determination of radioactivity content by ex vivo γ-counting.

[3] = target: T1, EGFR L858R (human, 672-1210) (Homo sapiens, UniProt P00533, L858R); assay: radiometric protein kinase assay (33PanQinase Activity Assay); conditions: Tests 1-3 are repeat determinations; read-out: Biochemical IC50 EGFR L858R
T1 construct: (human, 672-1210)
Experimental: (§1) The compounds were tested in 100% DMSO, all recombinant protein kinases and substrates with respective concentration are described in table 1.

[4] = target: T2, EGFR wt (human, 672-1210) (Homo sapiens, UniProt P00533); assay: as above; conditions: Tests 1-3 are repeat determinations; read-out: Biochemical IC50 EGFR WT (activated)
T2 construct: (human, 672-1210)
Experimental: as §1

[5] = target: T3, EGFR T790M/L858R (human, 672-1210) (Homo sapiens, UniProt P00533, L858R/T790M); assay: as above; conditions: Tests 1-3 are repeat determinations; read-out: Biochemical IC50 EGFR L858R/T790M
T3 construct: (human, 672-1210)
Experimental: as §1

[6] = tested on: NCI-H3255 (EGFR_L858R); assay: MTS cell viability assay, 72 hours; format: cell-based, Human
Experimental: (§2) The cell lines that were used to assay the cellular activity of the compounds are detailed in table 3 hereafter:
(§3) Tumor cells grew as monolayer at 37° C. in a humidified atmosphere (5% CO2) in complete culture medium adapted to each cell line. The cellular activity of the compounds was assessed by measuring the viability of cancer cell in MTS assay using a tetrazolium compound (MTS, 3-(4,5-dimethylthiazol-2-yl)-5-(3-carboxymethoxy phenyl)-2-(4-sulfophenyl)-2H-tetrazolium) and an electron coupling reagent named PMS (phenazine methosulfate). MTS is bioreduced by cells into a formazan product that is directly soluble in culture medium without processing. The cells were seeded 24 hours before treatment at the appropriate density in their culture medium to be near 90% of confluence at the end of experiment in vehicle treated conditions. After addition of compounds, the cells were incubated for 72 hours.

[7] = tested on: NCI-H441 (EGFR WT); assay: MTS cell viability assay, 72 hours; format: cell-based, Human; conditions: read-out: Cellular IC50 NCI-H441 (EGFR WT)
Experimental: as §2, §3

[8] = target: T790M (EGFR mutant) (Homo sapiens, UniProt P00533, L858R/T790M); assay: radiometric protein kinase assay (33PanQinase Activity Assay); conditions: Test 1; read-out: Biochemical IC50 T790M
Experimental: A radiometric protein kinase assay (^33PanQinase® Activity Assay) was used for measuring the biochemical kinase activity of 3 protein kinases, EGFR wild-type and 2 EGFR mutants (L858R, L858R/T790M). The compounds were tested in 100% DMSO, all recombinant protein kinases and substrates with respective concentration are described in table 1.

[9] = tested on: panel of 92 wild-type kinases; assay: kinase selectivity, residual activity at 100 nM and 1 μM; conditions: for selectivity score S(50): 92 wild-type kinases
Description: Corresponding kinases and substrates were always tested at the ATP Km concentration.

[10] = radiochemical stability in vehicle by HPLC; format: physicochemical; conditions: conditions of formulation, storage at room temperature
Experimental: By this method, the final radiolabeled compound can be obtained with a radiochemical purity greater than 98% in 100-110 min with a yield that can reach 25% (decay corrected). It has been noticed that an uncompleted evaporation of the solvents used for the purification of [^18F]Fluoroethyltosylate hampers the second step and conducts to lower yields. Specific activity of productions was in the range of […]. The radiolabeled compound is stable in the conditions of formulation as radiochemical purity still greater than 95% 20 h after production with a storage at room temperature.
(§4) After radiosynthesis, the stability of the radiotracer was evaluated by HPLC both in its vehicle and in rat plasma. Compound (I) was formulated in physiologic serum/ethanol with the respective proportion 87.5/12.5 (v/v). A mixture of compounds (I) (i.e. radiolabelled) and (Ia) (i.e. cold analogue) was stable for up to 20 hours at room temperature in its vehicle, only one peak being detected at the expected retention time. In rat plasma two peaks were detected: one at 3.15 minutes and one at 8.02 minutes (corresponding to a mixture of compounds (I) and (Ia)) after an incubation at +37° C. for 4 hours.

[11] = plasma stability by HPLC; format: in vitro ADME, rat; conditions: checked up to 4 h
Experimental: as §4

[12] = tested on: WT NCI-H441 tumors; assay: in vivo specificity: competition for uptake of Compound (I); set-up: species or system rats; conditions: gefitinib 2 mg/rat or Compound (Ia) 1 mg/rat
[13] = target: EGFR phosphorylation in NCI-H441 (Homo sapiens, UniProt P00533); assay: EGFR Y1068 phosphorylation, Western blot; conditions: NCI-H441, 10 ng/ml EGF
[14] = target: constitutively active EGFR in NCI-H3255 (Homo sapiens, UniProt P00533, L858R); assay: EGFR Y1068 phosphorylation, Western blot
[15] = metabolic microsomal stability, rat liver microsomes; format: in vitro ADME; conditions: pH 7.4, 0.5 mg/mL protein
Experimental: (§5) Metabolic microsomal stability was performed on human and rat liver microsomes. Microsomes (final protein concentration 0.5 mg/mL), 0.1 M phosphate buffer pH 7.4 and test compound (final substrate concentration=3 μM; final DMSO concentration=0.25%) are pre-incubated at 37° C. prior to the addition of NADPH (final concentration=1 mM) to initiate the reaction. Analysis is done with generic LC-MS/MS conditions to determine half-life and intrinsic clearance using standard equations. […] In human, Compound (Ia) metabolic stability was better than in rat and favorable for clinical studies.

[16] = target: double mutant EGFR expressed by NCI-H1975 (Homo sapiens, UniProt P00533, L858R/T790M); assay: EGFR Y1068 phosphorylation, Western blot
[17] = tested on: NCI-H3255 tumors (simple mutation); assay: in vivo specificity: competition for uptake of Compound (I); set-up: species or system rats; conditions: gefitinib 2 mg/rat or Compound (Ia) 1 mg/rat
[18] = kinetic solubility in PBS at pH 7.4; format: physicochemical; conditions: pH 7.4, aqueous buffer, kinetic from dmso stock
Experimental: The kinetic solubility of the compounds was assessed in PBS at pH 7.4.

[19] = tested on: NCI-H1975 tumors (double mutation); assay: in vivo specificity: competition for uptake of Compound (I); set-up: species or system rats; conditions: gefitinib 2 mg/rat or Compound (Ia) 1 mg/rat
[20] = tested on: NCI-H1975 (EGFR L858R/T790M); assay: MTS cell viability assay, 72 hours; format: cell-based; conditions: Homo sapiens, NCI-H1975, 72 h, read-out: Cellular IC50 NCI-H1975 (EGFR L858R/T790M)
Experimental: as §2, §3

[21] = tested on: MCF-7; assay: MTS cell viability assay, 72 hours; format: cell-based; conditions: Homo sapiens, MCF7, 72 h, negative control, does not express EGFR, read-out: Cellular IC50 MCF-7
Experimental: as §2, §3

[22] = metabolic microsomal stability, human liver microsomes; format: in vitro ADME; conditions: pH 7.4, 0.5 mg/mL protein
Experimental: as §5

[23] = Homo sapiens, NCI-H3255, 72 h, read-out: Cellular IC50 NCI-H3255 (EGFR_L858R)

T2 sequence (P00533 672-1210): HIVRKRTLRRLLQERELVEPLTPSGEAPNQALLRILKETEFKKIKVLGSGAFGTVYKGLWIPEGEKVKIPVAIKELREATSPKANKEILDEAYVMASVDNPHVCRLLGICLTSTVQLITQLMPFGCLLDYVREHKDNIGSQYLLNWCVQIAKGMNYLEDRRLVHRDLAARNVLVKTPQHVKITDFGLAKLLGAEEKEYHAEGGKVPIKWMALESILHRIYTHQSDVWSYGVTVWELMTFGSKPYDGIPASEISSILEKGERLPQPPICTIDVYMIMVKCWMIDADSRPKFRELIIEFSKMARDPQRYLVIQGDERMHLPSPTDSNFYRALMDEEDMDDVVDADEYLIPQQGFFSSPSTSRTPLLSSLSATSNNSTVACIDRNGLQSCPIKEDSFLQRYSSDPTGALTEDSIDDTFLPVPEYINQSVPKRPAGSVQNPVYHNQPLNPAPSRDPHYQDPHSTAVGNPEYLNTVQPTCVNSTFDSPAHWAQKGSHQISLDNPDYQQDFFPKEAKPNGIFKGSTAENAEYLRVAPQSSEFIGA
T3 sequence (P00533 672-1210 T790M/L858R): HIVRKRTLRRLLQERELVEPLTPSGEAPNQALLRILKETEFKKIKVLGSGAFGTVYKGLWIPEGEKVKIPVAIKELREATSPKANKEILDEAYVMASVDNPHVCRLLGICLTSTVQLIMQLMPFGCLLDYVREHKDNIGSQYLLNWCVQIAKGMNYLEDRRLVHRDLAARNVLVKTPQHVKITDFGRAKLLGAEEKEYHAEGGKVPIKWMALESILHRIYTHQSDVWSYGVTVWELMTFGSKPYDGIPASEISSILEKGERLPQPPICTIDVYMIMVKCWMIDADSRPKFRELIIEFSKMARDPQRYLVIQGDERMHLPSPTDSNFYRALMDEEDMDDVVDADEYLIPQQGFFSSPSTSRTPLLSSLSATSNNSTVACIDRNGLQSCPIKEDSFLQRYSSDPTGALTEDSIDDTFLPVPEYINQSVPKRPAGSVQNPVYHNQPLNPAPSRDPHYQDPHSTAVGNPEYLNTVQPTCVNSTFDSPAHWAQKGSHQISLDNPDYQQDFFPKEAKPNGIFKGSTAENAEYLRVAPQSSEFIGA
T1 sequence (P00533 672-1210 L858R): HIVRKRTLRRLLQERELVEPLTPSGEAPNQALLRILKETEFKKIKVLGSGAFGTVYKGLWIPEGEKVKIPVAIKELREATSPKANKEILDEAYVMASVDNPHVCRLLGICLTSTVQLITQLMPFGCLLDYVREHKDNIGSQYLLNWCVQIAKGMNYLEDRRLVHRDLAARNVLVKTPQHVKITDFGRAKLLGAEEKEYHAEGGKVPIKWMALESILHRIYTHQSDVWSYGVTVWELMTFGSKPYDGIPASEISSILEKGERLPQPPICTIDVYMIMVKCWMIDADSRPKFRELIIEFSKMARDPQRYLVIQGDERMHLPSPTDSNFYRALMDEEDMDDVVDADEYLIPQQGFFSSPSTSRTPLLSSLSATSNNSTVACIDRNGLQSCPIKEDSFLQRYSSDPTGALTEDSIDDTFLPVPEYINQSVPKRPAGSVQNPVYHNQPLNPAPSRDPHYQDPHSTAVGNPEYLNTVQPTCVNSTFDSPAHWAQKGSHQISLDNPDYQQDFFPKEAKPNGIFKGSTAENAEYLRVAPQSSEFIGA
Sequence of T790M (EGFR mutant) (P00533 672-1210 T790M/L858R): as the sequence (P00533 672-1210 T790M/L858R) above
Sequence of constitutively active EGFR in NCI-H3255 (P00533 25-1210 L858R): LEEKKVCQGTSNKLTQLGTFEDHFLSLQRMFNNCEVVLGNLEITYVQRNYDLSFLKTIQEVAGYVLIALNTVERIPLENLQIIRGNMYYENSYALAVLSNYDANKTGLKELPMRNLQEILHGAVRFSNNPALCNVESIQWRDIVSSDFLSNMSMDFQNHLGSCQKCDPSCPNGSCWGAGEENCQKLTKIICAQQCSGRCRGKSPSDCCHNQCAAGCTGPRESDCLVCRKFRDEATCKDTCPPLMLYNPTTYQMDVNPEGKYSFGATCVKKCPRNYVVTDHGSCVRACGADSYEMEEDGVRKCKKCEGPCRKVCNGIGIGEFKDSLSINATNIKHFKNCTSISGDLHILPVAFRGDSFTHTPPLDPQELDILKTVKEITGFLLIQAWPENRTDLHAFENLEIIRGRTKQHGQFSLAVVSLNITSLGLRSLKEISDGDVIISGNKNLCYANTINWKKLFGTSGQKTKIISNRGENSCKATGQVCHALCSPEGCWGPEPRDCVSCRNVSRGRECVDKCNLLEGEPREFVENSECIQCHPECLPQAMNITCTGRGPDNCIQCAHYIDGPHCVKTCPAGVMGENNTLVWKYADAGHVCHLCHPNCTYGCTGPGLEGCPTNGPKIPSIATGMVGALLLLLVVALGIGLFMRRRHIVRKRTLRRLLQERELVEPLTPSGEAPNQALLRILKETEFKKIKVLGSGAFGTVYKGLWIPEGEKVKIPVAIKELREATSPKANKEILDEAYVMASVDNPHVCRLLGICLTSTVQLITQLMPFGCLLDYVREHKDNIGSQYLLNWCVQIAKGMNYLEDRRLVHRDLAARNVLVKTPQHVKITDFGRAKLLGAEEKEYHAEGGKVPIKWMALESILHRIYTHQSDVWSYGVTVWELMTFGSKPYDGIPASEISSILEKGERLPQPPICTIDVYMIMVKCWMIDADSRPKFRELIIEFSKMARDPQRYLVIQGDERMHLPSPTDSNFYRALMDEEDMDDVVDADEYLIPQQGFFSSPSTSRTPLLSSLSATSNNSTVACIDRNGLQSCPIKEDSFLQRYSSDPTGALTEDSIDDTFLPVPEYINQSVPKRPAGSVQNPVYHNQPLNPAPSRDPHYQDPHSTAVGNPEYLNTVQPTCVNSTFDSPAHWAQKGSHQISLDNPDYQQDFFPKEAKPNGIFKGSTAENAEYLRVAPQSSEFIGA
Sequence of double mutant EGFR expressed by NCI-H1975 (P00533 25-1210 T790M/L858R): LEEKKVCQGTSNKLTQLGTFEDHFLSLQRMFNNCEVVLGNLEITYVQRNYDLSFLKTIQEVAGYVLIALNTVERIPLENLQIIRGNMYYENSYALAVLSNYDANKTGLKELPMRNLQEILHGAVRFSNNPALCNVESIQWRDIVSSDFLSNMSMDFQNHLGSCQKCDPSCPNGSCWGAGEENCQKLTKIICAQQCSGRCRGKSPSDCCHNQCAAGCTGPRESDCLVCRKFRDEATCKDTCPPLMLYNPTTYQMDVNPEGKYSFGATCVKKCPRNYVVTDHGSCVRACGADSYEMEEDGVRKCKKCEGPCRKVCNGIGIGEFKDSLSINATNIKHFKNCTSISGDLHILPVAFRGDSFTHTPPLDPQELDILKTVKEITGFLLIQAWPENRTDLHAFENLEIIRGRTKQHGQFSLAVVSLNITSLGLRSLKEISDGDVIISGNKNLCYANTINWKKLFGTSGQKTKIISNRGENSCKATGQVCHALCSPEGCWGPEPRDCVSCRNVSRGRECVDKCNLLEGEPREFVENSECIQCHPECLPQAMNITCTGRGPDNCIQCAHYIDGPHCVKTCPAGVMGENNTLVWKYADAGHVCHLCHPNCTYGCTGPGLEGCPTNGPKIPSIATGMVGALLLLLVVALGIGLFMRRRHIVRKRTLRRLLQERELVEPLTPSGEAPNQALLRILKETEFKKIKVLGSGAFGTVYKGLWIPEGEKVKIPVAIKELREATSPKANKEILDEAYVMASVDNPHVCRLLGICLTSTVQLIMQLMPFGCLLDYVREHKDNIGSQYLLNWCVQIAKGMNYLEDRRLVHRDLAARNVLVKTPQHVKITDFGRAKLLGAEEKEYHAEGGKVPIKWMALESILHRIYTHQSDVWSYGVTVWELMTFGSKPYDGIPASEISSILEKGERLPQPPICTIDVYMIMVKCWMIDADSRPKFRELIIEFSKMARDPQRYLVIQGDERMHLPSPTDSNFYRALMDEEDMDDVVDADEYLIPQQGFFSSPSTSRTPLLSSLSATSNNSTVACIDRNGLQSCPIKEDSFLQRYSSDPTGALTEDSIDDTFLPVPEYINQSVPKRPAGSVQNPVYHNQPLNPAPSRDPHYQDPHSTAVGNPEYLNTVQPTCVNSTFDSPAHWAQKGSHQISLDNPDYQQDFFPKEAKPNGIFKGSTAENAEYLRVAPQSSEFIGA

SMILES: Nc1ncnc2c1ncn2[C@@H]1O[C@H](COP(=O)(O)OP(=O)(O)OP(=O)(O)O)[C@@H](O)[C@H]1O [ATP, reference compound]
competition with the binding of Compound (I) on frozen tumor sections [1]: totally abolished the binding of Compound (I)

SMILES: CC(C)[C@@H]1NC(=O)Cc2ccc(Cl)cc2Nc2ncnc3cc(OCCF)c(cc23)OCCCNC1=O [Compound (IIa)]
IC50 [3]: < 10 nM and 6.3 nM | IC50 [4]: < 10 nM and 5.9 nM | IC50 [5]: 924 nM | IC50 [6, 23]: 30 nM | IC50 ([6]; read-out: Cellular IC50 NCI-H3255 (EGFR_L858R)): 49 nM | IC50 ([7]; Homo sapiens, NCI-H441, 72 h): > 25000 nM | IC50 [8]: 1010 nM | wild-type kinases inhibited for more than 50% ([9]; at 100 nM): EGFR and RIPK2 were the only wild-type kinases inhibited for more than 50% | selectivity score S(50) ([9]; at 100 nM): 2.2% and 2.5% | number of other kinases with inhibition of >50% ([9]; at 1 μM): 9 | selectivity score S(50) ([9]; at 1 μM): 11.9% and 13%

SMILES: CC(C)[C@H]1NC(=O)Cc2ccc(Cl)cc2Nc2ncnc3cc(OCCF)c(cc23)OCCCNC1=O [Compound (IIIa)]
IC50 [3]: 2.7 nM | IC50 [4]: 3.1 nM | IC50 [5]: 77.7 nM | IC50 ([6]; Homo sapiens, NCI-H3255, 72 h, read-out: mean IC50 on NCI-H3255): 6.1 nM | IC50 ([7]; Homo sapiens, NCI-H441, 72 h): 34700 nM | IC50 [7]: > 25000 nM | IC50 [8]: 54.7 nM | selectivity score S(50) ([9]; at 100 nM): 0.6% | selectivity score S(50) ([9]; at 1 μM): 2.8%

SMILES: COc1cc2ncnc(Nc3ccc(F)c(Cl)c3)c2cc1OCCCN1CCOCC1 [Gefitinib, gefitinib, reference compound]
change of uptake of Compound (I) after competition [12]: +16%

Now from value to compound, other results behind:

uptake in liver ([2]; 5 minutes post injection): 0.02±0.09 % ID/g | uptake in small intestine ([2]; 5 minutes post injection): 0.35±0.19 % ID/g | uptake in blood ([2]; 5 minutes post-injection): 0.20±0.002 % ID/g | uptake in heart ([2]; 5 minutes post-injection): 0.99±0.02 % ID/g | uptake in kidneys ([2]; 5 minutes post-injection): 4.15±0.79 % ID/g | uptake in stomach ([2]; 5 minutes post-injection): 1.86±0.73 % ID/g | uptake in liver ([2]; 30 minutes post injection): 0.71±0.07 % ID/g | uptake in heart ([2]; 30 minutes post-injection): 0.10±0.02 % ID/g | uptake in kidneys ([2]; 30 minutes timepoint): 0.25±0.08 % ID/g | uptake in stomach ([2]; 30 minutes timepoint): 0.26±0.07 % ID/g | uptake in stomach ([2]; four hours post-injection): 2.58±2.52 % ID/g | uptake in small intestine ([2]; thirty minutes post-injection): 0.02±0.004 % ID/g
SMILES: CC(C)[C@H]1NC(=O)Cc2ccc(Cl)cc2Nc2ncnc3cc(OCC[18F])c(cc23)OCCCNC1=O [(III)]

radiochemical purity 20 h after production [10]: greater than 95% | Plasmatic stability [11]: without significant degradation | uptake in liver ([2]; 5 minutes post injection): 0.97±0.92 % ID/g | uptake in small intestine ([2]; 5 minutes post injection): 0.08±0.09 % ID/g | uptake in blood ([2]; 5 minutes post-injection): 0.11±0.01 % ID/g | uptake in heart ([2]; 5 minutes post-injection): 1.35±0.35 % ID/g | uptake in kidneys ([2]; 5 minutes post-injection): 6.89±0.52 % ID/g | uptake in stomach ([2]; 5 minutes post-injection): 0.72±0.38 % ID/g | uptake in liver ([2]; 30 minutes post injection): 0.15±0.03 % ID/g | uptake in heart ([2]; 30 minutes post-injection): 0.19±0.08 % ID/g | uptake in kidneys ([2]; 30 minutes timepoint): 1.04±0.17 % ID/g | uptake in stomach ([2]; 30 minutes timepoint): 0.20±0.05 % ID/g | uptake in stomach ([2]; four hours post-injection): 2.39±2.31 % ID/g | uptake in small intestine ([2]; thirty minutes post-injection): 0.08±0.07 % ID/g
SMILES: CC(C)[C@@H]1NC(=O)Cc2ccc(Cl)cc2Nc2ncnc3cc(OCC[18F])c(cc23)OCCCNC1=O [Compound (II)]

inhibition of EGF-induced EGFR Y1068 phosphorylation [13]: almost full inhibition observed at 1 μM | IC50 [3]: 3 nM and 8 nM and 4.1 nM | IC50 [4]: 3.2 nM and 5 nM and 5.7 nM | IC50 [5]: 372 nM and 990 nM and 246 nM | IC50 [6, 23]: 6 ± 2 nM | IC50 ([7]; Homo sapiens, NCI-H441, 72 h): 34700 ± 24000 nM | concentration at which full inhibition of constitutively active EGFR was observed [14]: ~100 nM | microsomal CLint at 3 μM [15]: 37.9 ± 1.89 µL/min/mg | half-life at 3 μM ([15]; read-out: rat microsomal stability t1/2): 0.608 h | inhibition of constitutively active double mutant EGFR [16]: partially inhibit EGFR activity at 10 μM | solubility kinetic [18]: 88 µM (≈ 46.6 µg/mL) | IC50 [20]: 5000 ± 1400 nM | IC50 [21]: 62100 nM | microsomal CLint at 3 μM [22]: 7.76 ± 2.53 µL/min/mg | half-life at 3 μM ([22]; read-out: human microsomal stability t1/2): 2.98 h
SMILES: CC(C)C1NC(=O)Cc2ccc(Cl)cc2Nc2ncnc3cc(OCCF)c(cc23)OCCCNC1=O (stereo not drawn) [Compound (Ia)]
change of uptake of Compound (I) after competition [12]: 5% | decrease of T/M ratios of Compound (I) by competition [17]: 52% | change of T/M ratios of Compound (I) after competition [19]: −55%
